Reference: patent US6982157B1, “Drug combinations comprising (E)-7-[4-(4-fluorophenyl)-6-isopropyl-2-[methylsulfonyl)amino] pyrimidin-5-yl] (3r,5s) -3,5-dihydroxyhept-6-enoic acid and an inhibitor, inducer or substrate of p450 isoenzyme 3A4” (AstraZeneca AB, priority 1999, dated 2006)

What was measured:
patients = details: cited from earlier work
[1] = system: mixed hyperlipidaemia and hypertriglyceridaemia in patients; assay: Clinical study of the Agent dosed with a fibrate drug; type: in vivo, human
human hepatocytes = assay: Metabolism of [14C]-labelled Agent by human hepatocytes; type: in vitro ADME; details: human hepatocytes in culture, 0-48 hours
Method: Cultures were terminated with ethanol after 0, 6, 24 and 48 hours of incubation and stored at approximately −20° C. until analysed. The metabolic competence of the hepatocytes was confirmed at the time of incubation by examining their ability to metabolise [^14C]-ethoxycoumarin (25 μM); aliquots were removed into methanol at the same time points as for the test compound.
Following incubation of [^14C]-ZD4522 with hepatocytes, metabolite profiles were generated by High Performance Liquid Chromatography (HPLC). The ability of hepatocytes to metabolise [^14C]-ethoxycoumarin was confirmed by HPLC.

[2] = system: hypercholesterolaemia in patients following transplantation; assay: Clinical study of the Agent in post-transplant patients on immunosuppressive therapy; type: in vivo, human
Method: Trial Design This is a multicenter, randomized, double-blind, parallel-group clinical trial. […] Patients who have had their dose titrated up to 40 mg may have their dose titrated back down to 20 mg at the investigator's discretion.

[3] = system: cytochrome P450 enzymes, in particular 3A4; details: cited from earlier work
[4] = system: heart transplant patients; details: cited from earlier work
[5] = patients undertaking immunosuppressive therapy

## Cc1ccc(C)c(OCCCC(C)(C)C(=O)O)c1 [gemfibrozil]
patients; gemfibrozil when a statin is also administered
  patients with myositis-flu like syndrome: 5%

## CC(C)c1nc(N(C)S(C)(=O)=O)nc(-c2ccc(F)cc2)c1/C=C/[C@@H](O)C[C@@H](O)CC(=O)O [Agent, (E)-7-[4-(4-fluorophenyl)-6-isopropyl-2-[methyl(methylsulfonyl)amino]pyrimidin-5-yl](3R,5S)-3,5-dihydroxyhept-6-enoic acid]
[1]; combined with a fibrate drug
  treating mixed hyperlipidaemia and hypertriglyceridaemia when combined with a fibrate drug: extremely effective
[1]; patients also taking a fibrate drug
  side effects of concomitant dosing of the Agent and the fibrate drug: without any clinically significant side effects
Human hepatocytes
  metabolism of the Agent by whole hepatocytes: not significantly metabolised
[2]; patients following transplantation
  treating hypercholesterolaemia in patients following transplantation: extremely effective
[2]; [5]
  level of cholesterol lowering compared with what was previously achieved, such as by pravastatin: much higher levels of cholesterol lowering
  side effects of concomitant dosing of the Agent and immunosuppressive drug(s): without any clinically significant side effects

## CC[C@H](C)C(=O)O[C@H]1C[C@H](O)C=C2C=C[C@H](C)[C@H](CC[C@@H](O)C[C@@H](O)CC(=O)O)[C@H]21 [pravastatin]
[3]
  rate of metabolism by P450: sufficiently low

## CC[C@H](C)C(=O)O[C@H]1C[C@@H](C)C=C2C=C[C@H](C)[C@H](CC[C@@H]3C[C@@H](O)CC(=O)O3)[C@H]21 [Lovastatin, lovastatin]
[4]
  cholesterol levels in heart transplant patients: lower cholesterol levels

## CC(C)c1c(C(=O)Nc2ccccc2)c(-c2ccccc2)c(-c2ccc(F)cc2)n1CC[C@@H](O)C[C@@H](O)CC(=O)O [atorvastatin]
patients; low doses of atorvastatin, European SmPC
  patients with clinically important (>3 times ULN) elevations in serum ALT: 0.8%
